Experimental data published in publication PMC9454457 (Journal of Nuclear Medicine, 2022).
Like-named read-outs stand apart in the source and are kept apart here. Values belong to the molecule of their own block, whether it stands above or below them.

Columns and labels:
[1] = Lipophilicity, n-octanol-PBS distribution coefficient (logD7.4); format: physicochemical; details: n-octanol/PBS pH 7.4
Protocol: Approximately 1 MBq of the ^177Lu-labeled compound was dissolved in 1 mL of phosphate-buffered saline (pH 7.4) and n-octanol (v/v = 1/1). After stirring for 3 min at room temperature in a vortex mixer and subsequent centrifugation at 9,000 rpm for 5 min (Biofuge 15; Heraeus Sepatech GmbH), 200-μL aliquots of both layers were measured separately in a γ-counter. The experiment was repeated at least 5 times.

[2] = In vitro metabolic stability in human plasma; format: in vitro ADME; details: 37°C, 72 ± 2 h, n = 4
Protocol: Metabolic stability in vitro was determined through a procedure published by Linder et al. that was slightly modified ([16]). Immediately after labeling, 200 μL of human plasma were added and the mixture was incubated at 37°C for 72 ± 2 h. Proteins were precipitated by treatment with ice-cold EtOH (150 μL) and ice-cold MeCN (450 μL), followed by centrifugation (13,000 rpm, 20 min). The supernatants were decanted and further centrifuged (13,000 rpm, 10 min) using a Costar Spin-X (Corning) centrifuge tube filter (0.45 μm). The filtrated plasma samples were analyzed using radio–RP-HPLC.
(§1) FIGURE 2. Preclinical data of ^nat/177Lu-RM2 (red), ^nat/177Lu-NeoBOMB1 (gray), ^nat/177Lu-AMTG (green), and ^nat/177Lu-AMTG2 (blue). (A) Affinity data on PC-3 and T-47D cells (1.5 × 10^5 cells/mL/well) using 3-^125I-D-Tyr^6-MJ9 (0.2 nM/well) as radiolabeled reference (2 h, room temperature, Hanks’ balanced salt solution plus 1% bovine serum albumin [v/v]). (B) GRPR-mediated internalization (0.25 pmol/well) on PC-3 cells as percentage of applied activity (incubation at 37°C for 1 h, Dulbecco modified Eagle medium/F-12 plus 5% bovine serum albumin [v/v], 1.5 × 10^5 cells/mL/well). Data were corrected for nonspecific binding (10^−3 M ^natLu-RM2). (C) Lipophilicity at pH 7.4 (logD7.4). (D) Metabolic stability in vitro in human plasma (left) (37°C, 72 ± 2 h; n = 4), and metabolic stability in vivo in murine plasma (middle) and murine urine (right) at 30 min after injection (n = 3). Data are expressed as mean ± SD.

[3] = In vivo metabolic stability in murine plasma and urine; design: species or system CB17-SCID mice; details: 30 min after injection, n = 3
Protocol: Approximately 30–40 MBq (1 nmol, 150 μL) of the ^177Lu-labeled compounds were injected into the tail vein of anesthetized CB17-SCID mice (n = 3). After euthanasia at 30 min after injection, blood and urine samples were collected. Blood proteins were precipitated by treatment with ice-cold MeCN (v/v = 1/1), followed by centrifugation (13,000 rpm, 20 min). The supernatants were decanted and further centrifuged (13,000 rpm, 10 min) using a Costar Spin-X centrifuge tube filter (0.45 μm). The filtrated plasma samples and the urine samples were analyzed using radio–RP-HPLC.
as §1

[4] = Biodistribution in PC-3 tumor-bearing CB17-SCID mice; format: in vivo
Protocol: A detailed description of tumor inoculation is provided in the supplemental materials. Approximately 2–5 MBq (100 pmol, 150 μL) of the ^177Lu-labeled GRPR ligands were injected into the tail vein of anesthetized (2% isoflurane) PC-3 tumor–bearing mice (biodistribution, n = 4; imaging, n = 1).
For biodistribution studies, organs were removed, weighed, and measured in a γ-counter (Perkin Elmer) after euthanasia at 24 h after injection.
For all competition studies, 3.62 mg/kg (40 nmol) of ^natLu-RM2 (10^−3 M in phosphate-buffered saline) were coadministered.

[5] = 30 min after injection; cited from earlier work
GRPR [6] = biological target: T1, GRPR (Homo sapiens, UniProt P30550); assay: Competitive binding (IC50) on PC-3 cells vs 3-125I-D-Tyr6-MJ9; details: 2 h, room temperature, 3-125I-D-Tyr6-MJ9 0.2 nM/well, n = 3
T1 construct: endogenous in cells; host or cells: PC-3 cells
Protocol: Competitive binding studies were performed on both PC-3 and T-47D cells (1.5 × 10^5 cells in 1 mL/well) via incubation at room temperature for 2 h using 3-^125I-D-Tyr^6-MJ9 (0.2 nM/well) as a radiolabeled reference (n = 3). Internalization studies of the ^177Lu-labeled conjugates (1.0 nM/well) were performed on PC-3 cells (1.5 × 10^5 cells in 1 mL/well) at 37°C for 1 h (n = 6). Data were corrected for nonspecific binding (competition by 10^−3 M ^natLu-RM2).
as §1

GRPR [7] = biological target: T1, GRPR; design: method as in PMID 19671861, PMID 17262215; details: 1 h in vitro; cited from earlier work

T1 sequence (P30550 whole entry): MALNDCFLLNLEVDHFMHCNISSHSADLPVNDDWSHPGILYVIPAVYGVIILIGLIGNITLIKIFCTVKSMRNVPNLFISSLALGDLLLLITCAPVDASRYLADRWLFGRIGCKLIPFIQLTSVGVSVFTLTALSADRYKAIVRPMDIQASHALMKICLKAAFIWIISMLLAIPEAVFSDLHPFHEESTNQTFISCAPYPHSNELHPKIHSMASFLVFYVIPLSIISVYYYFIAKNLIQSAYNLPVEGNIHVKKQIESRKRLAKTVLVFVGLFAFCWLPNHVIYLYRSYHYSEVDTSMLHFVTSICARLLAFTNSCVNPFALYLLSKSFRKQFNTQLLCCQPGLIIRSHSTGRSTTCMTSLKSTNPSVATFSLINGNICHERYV

Molecule: CC(C)CC(CC(C)C)NC(=O)[C@H](Cc1cnc[nH]1)NC(=O)CNC(=O)[C@@H](NC(=O)[C@H](C)NC(=O)[C@H](Cc1c[nH]c2ccccc12)NC(=O)[C@H](CCC(N)=O)NC(=O)[C@@H](Cc1ccccc1)NC(=O)COCC(=O)Nc1ccc(CNC(=O)CN2CCN(CC(=O)O)CCN(CC(=O)O)CCN(CC(=O)O)CC2)cc1)C(C)C [^177Lu-NeoBOMB1, metal not drawn, reference compound]
- logD [1]: -0.57 ± 0.03
- Intact compound in human plasma in vitro [2]: 61.9% ± 2.1%
- Intact tracer in murine plasma in vivo [3]: 75.9% ± 0.6%
- Intact tracer in murine urine in vivo [3]: 3.9% ± 1.3%
- tissue uptake at 24 h ([4]; CB17-SCID, mouse, blood, intravenous, total radioactivity; 24 h after injection, 100 pmol, n = 4; read-out: Biodistribution, Blood): 0.057 ± 0.027 %ID/g
- tissue uptake at 24 h ([4]; CB17-SCID, mouse, heart, intravenous, total radioactivity; 24 h after injection, 100 pmol, n = 4; read-out: Biodistribution, Heart): 0.1 ± 0.03 %ID/g
- tissue uptake at 24 h ([4]; CB17-SCID, mouse, intestine, intravenous, total radioactivity; 24 h after injection, 100 pmol, n = 4; read-out: Biodistribution, Intestine): 0.85 ± 0.05 %ID/g
- tissue uptake at 24 h ([4]; CB17-SCID, mouse, kidney, intravenous, total radioactivity; 24 h after injection, 100 pmol, n = 4; read-out: Biodistribution, Kidney): 1.9 ± 0.72 %ID/g
- tissue uptake at 24 h ([4]; CB17-SCID, mouse, liver, intravenous, total radioactivity; 24 h after injection, 100 pmol, n = 4; read-out: Biodistribution, Liver): 1.6 ± 0.62 %ID/g
- tissue uptake at 24 h ([4]; CB17-SCID, mouse, lung, intravenous, total radioactivity; 24 h after injection, 100 pmol, n = 4; read-out: Biodistribution, Lung): 0.43 %ID/g
- tissue uptake at 24 h ([4]; CB17-SCID, mouse, muscle, intravenous, total radioactivity; 24 h after injection, 100 pmol, n = 4; read-out: Biodistribution, Muscle): 0.01 ± 0.005 %ID/g
- tissue uptake at 24 h ([4]; CB17-SCID, mouse, pancreas, intravenous, total radioactivity; 24 h after injection, 100 pmol, n = 4; read-out: Biodistribution, Pancreas): 8.48 ± 0.92 %ID/g
- tissue uptake at 24 h ([4]; CB17-SCID, mouse, spleen, intravenous, total radioactivity; 24 h after injection, 100 pmol, n = 4; read-out: Biodistribution, Spleen): 1.94 ± 0.97 %ID/g
- tissue uptake at 24 h ([4]; CB17-SCID, mouse, stomach, intravenous, total radioactivity; 24 h after injection, 100 pmol, n = 4; read-out: Biodistribution, Stomach): 1.29 ± 0.12 %ID/g
- tissue uptake at 24 h ([4]; CB17-SCID, mouse, tumor (PC-3), intravenous, total radioactivity; PC-3 tumor, 24 h after injection, 100 pmol, n = 4; read-out: Biodistribution, Tumor): 7.23 ± 0.91 %ID/g
- Fraction of intact tracer in murine blood [5]: 90%

- IC50 (GRPR [6]): 1.3 ± 0.4 nM
Molecule: CC(C)C[C@H](NC(=O)C[C@H](O)[C@H](CC(C)C)NC(=O)[C@H](Cc1c[nH]cn1)NC(=O)CNC(=O)[C@@H](NC(=O)[C@H](C)NC(=O)[C@H](Cc1c[nH]c2ccccc12)NC(=O)[C@H](CCC(N)=O)NC(=O)[C@@H](Cc1ccc(O)c(I)c1)NC(=O)CN1CCC(N)CC1)C(C)C)C(N)=O [cold counterpart of 3-^125I-D-Tyr^6-MJ9]

Molecule: DOTA-4-aminobenzoyl-Gln^7- Trp^8-Ala^9- Val^10- Gly^11- His^12- Leu^13-Met^14-NH2 [AMBA]
- Internalization rates (GRPR [7]): more than 25%

- Intact compound in human plasma in vitro [2]: 38.7% ± 9.3%
- Intact tracer in murine plasma in vivo [3]: 11.4% ± 3.7%
- Intact tracer in murine urine in vivo [3]: 0.5% ± 0.1%
- tissue uptake at 24 h ([4]; CB17-SCID, mouse, adrenal, intravenous, 100 pmol, total radioactivity, 24 h after injection, 100 pmol, n = 4; read-out: Biodistribution, Adrenal): 0.8 ± 0.16 %ID/g
- tissue uptake at 24 h ([4]; CB17-SCID, mouse, blood, intravenous, 100 pmol, total radioactivity, 24 h after injection, 100 pmol, n = 4; read-out: Biodistribution, Blood): 0.012 ± 0.001 %ID/g
- tissue uptake at 24 h ([4]; CB17-SCID, mouse, bone, intravenous, 100 pmol, total radioactivity, 24 h after injection, 100 pmol, n = 4; read-out: Biodistribution, Bone): 1.31 ± 0.56 %ID/g
- tissue uptake at 24 h ([4]; CB17-SCID, mouse, kidney, intravenous, 100 pmol, total radioactivity, 24 h after injection, 100 pmol, n = 4; read-out: Biodistribution, Kidney): 1.79 ± 0.05 %ID/g
- tissue uptake at 24 h ([4]; CB17-SCID, mouse, liver, intravenous, 100 pmol, total radioactivity, 24 h after injection, 100 pmol, n = 4; read-out: Biodistribution, Liver): 0.45 ± 0.03 %ID/g
- tissue uptake at 24 h ([4]; CB17-SCID, mouse, muscle, intravenous, 100 pmol, total radioactivity, 24 h after injection, 100 pmol, n = 4; read-out: Biodistribution, Muscle): 0.011 ± 0.011 %ID/g
- tissue uptake at 24 h ([4]; CB17-SCID, mouse, pancreas, intravenous, 100 pmol, total radioactivity, 24 h after injection, 100 pmol, n = 4; read-out: Biodistribution, Pancreas): 0.43 ± 0.06 %ID/g
- tissue uptake at 24 h ([4]; CB17-SCID, mouse, tumor (PC-3), intravenous, 100 pmol, total radioactivity, PC-3 tumor, 24 h after injection, 100 pmol, n = 4; read-out: Biodistribution, Tumor): 8.45 ± 0.19 %ID/g
Molecule: CC(C)C[C@H](NC(=O)C[C@H](O)[C@H](CC(C)C)NC(=O)[C@H](Cc1c[nH]cn1)NC(=O)CNC(=O)[C@@H](NC(=O)[C@H](C)NC(=O)[C@H](Cc1c[nH]c2ccccc12)NC(=O)[C@H](CCC(N)=O)NC(=O)[C@@H](Cc1ccccc1)NC(=O)CN1CCC(NC(=O)CN2CCN(CC(=O)O)CCN(CC(=O)O)CCN(CC(=O)O)CC2)CC1)C(C)C)C(N)=O [^177Lu-RM2, metal not drawn, reference compound]
